The values that follow come from US20100035862A1, “NOVEL AZA-CYCLIC INDOLE-2-CARBOXAMIDES AND METHODS OF USE THEREOF” (ABBOTT LABORATORIES, priority 2008, published 2010).

This test has as its target T1, human α4β2 (Homo sapiens, UniProt P17787+P43681).
T1 construct: expressed in transfected cells
Kind of test: Calcium flux assay (FLIPR) in HEK 293 cells expressing NNR subtype; potentiation of submaximal agonist response. In kind it is cell-based. The settings on record: α4β2 PAM; response to submaximal agonist (EC20-30%) such as nicotine. The source says:
One manner to characterize α4β2 PAM activity is by characterization in clonal cell lines (for example, human embryonic kidney 293 cells) expressing the human neuronal nicotinic acetylcholine receptor subtype α4β2, particularly by use of Fluorescent Image Plate Reader technology. Effects on calcium flux or membrane potential changes can be assessed. Such assays have been reported and further details for carrying out, the assays can be obtained in International Publication No. WO 2006/114400. Another method to identify and characterize allosteric modulator activity is by expressing the α4β2 subunits in Xenopus oocytes, and by measuring electrophysiological effects on ligand-evoked current responses as previously described in Curtis, L., et al., Molecular Pharmacology, 61: 127-135, 2002.
To determine the effectiveness of representative compounds of this invention as ligands for α4β2 PAM activity, the compounds of the invention can be evaluated according to the Calcium Flux Assay described below.
Calcium Flux Assays Using Cells Expressing NNR Subtypes
Human embryonic kidney (HEK) 293 cells stably expressing human α4β2 or (3β4 combinations are grown to confluency in 162 cm^2 tissue culture flasks in DMEM media supplemented with 10% FBS and 25 μg/mL zeocin and 200 μg/mL hygromycin B. Cells expressing rat or ferret subunits may also be used. For assessing α3* or α7* selectivity, IMR-32 cells may also be used. IMR-32 neuroblastoma cells (ATCC) are grown to confluency in 162 cm^2 tissue culture flasks in minimum essential media supplemented with 10% FBS and 1 mM sodium pyruvate, 1% non-essential amino acids and 1% antibiotic-antimycotic. For the calcium flux assay, c cells are then dissociated using cell dissociation buffer and 100-150 μL per well of 3.5×10^5 cells/mL cell suspension (˜50,000-100,000 cells/well) was plated into 96-well black plates (poly-D-lysine precoated) with clear bottom and maintained for 24-48 hours in a tissue culture incubator at 37° C. under an atmosphere of 5% CO2: 95% air. Other clonal cell lines or primary cell cultures that express endogenous α4* nicotinic receptors may also be used in this assay. Calcium flux was measured using calcium-3 assay kit (Molecular Devices, Sunnyvale, Calif.) or fluo-4 (Invitrogen). A stock solution of the dye was prepared by dissolving each vial supplied by the vendor in Hank's balanced-salt solution buffer (HBSS) or 150 mM NMDG, 20 mM calcium chloride containing 10 mM HEPES. The stock-solution was diluted 1:20 using a the same buffer before use. The growth media was removed from the cells. The cells were loaded with 100 μL of the dye per well and incubated at room temperature for up to one hour for HEK 293 clonal stable cell lines or 30 minutes-45 minutes at 37° C. for IMR-32 cells. Fluorescence measurements were read simultaneously from all the wells by a Fluorometic Imaging Plate Reader (FLIPR) at an excitation wavelength of 480 nm and an emission wavelength of 520 nm. Baseline fluorescence was measured for the first 6 seconds at which 3× concentrations of modulator/test compounds were added to the cell plate at 50 μL and incubated for five minutes. The fluorescence intensity was captured every second for the first 1 minute followed by every 5 seconds for an additional 4 minutes. This procedure was followed by 50 μL of 4× concentration of agonist and readings were taken for a period of 3-5 minutes as described above.
The ability of test compounds to positively modulate the response (i.e., increase the response) induced by a submaximal concentration of agonist (EC20-30%) such as nicotine is measured. Potentiation is measured based on peak fluorescence responses. by screening compounds at fixed concentrations or in a concentration-response manner to derive, EC50 values. The concentration dependence of changes in fluorescence responses is fitted by nonlinear regression analysis (GraphPad Prism, San Diego, Calif.) to obtain EC50 values. […]
Background: Calcium flux is commonly read through the fluorescence of an indicator in the cells.

T1 sequence (P43681 29-627 limits assumed): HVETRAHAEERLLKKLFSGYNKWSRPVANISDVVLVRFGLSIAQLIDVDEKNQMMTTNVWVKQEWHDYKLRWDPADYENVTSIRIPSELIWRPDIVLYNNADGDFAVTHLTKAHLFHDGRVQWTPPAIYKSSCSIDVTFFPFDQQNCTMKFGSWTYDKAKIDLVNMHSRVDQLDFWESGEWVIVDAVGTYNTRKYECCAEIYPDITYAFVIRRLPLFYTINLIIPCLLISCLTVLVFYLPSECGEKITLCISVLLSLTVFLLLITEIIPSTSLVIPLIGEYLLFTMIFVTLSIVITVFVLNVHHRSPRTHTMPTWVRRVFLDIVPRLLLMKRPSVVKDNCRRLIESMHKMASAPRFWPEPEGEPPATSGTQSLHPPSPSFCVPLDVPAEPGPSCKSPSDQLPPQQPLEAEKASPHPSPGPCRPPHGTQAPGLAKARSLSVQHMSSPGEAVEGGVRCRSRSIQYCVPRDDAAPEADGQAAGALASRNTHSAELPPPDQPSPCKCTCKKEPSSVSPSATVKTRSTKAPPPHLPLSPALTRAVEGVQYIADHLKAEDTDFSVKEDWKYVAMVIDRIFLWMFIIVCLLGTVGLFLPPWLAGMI
T1 sequence (P17787 26-502): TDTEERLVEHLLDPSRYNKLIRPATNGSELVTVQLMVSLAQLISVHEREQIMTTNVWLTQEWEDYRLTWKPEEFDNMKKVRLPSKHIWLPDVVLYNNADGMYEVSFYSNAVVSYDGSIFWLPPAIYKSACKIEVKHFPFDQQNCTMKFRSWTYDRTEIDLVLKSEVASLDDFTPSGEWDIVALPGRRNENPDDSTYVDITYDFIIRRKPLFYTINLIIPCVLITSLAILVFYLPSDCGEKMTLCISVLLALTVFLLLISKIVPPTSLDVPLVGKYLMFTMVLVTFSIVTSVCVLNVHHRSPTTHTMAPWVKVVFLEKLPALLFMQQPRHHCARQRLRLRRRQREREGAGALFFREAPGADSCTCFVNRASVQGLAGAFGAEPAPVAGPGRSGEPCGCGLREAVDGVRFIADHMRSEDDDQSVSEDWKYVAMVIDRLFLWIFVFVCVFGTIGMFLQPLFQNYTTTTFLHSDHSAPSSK

For the compound `Cc1ccc(C)c2c(C)c(C(=O)N[C@@H]3CCNC3)[nH]c12` [Example 1, (R)-3,4,7-trimethyl-N-(pyrrolidin-3-yl)-1H-indole-2-carboxamide], the “Activity (allostertc effects—potentiation of fluorescence responses)” value (“Activity” below) was “a (“a” denotes active compounds (>100%))”.
Under `CC(C)(C)c1ccc2cc(C(=O)N[C@@H]3CCNC3)[nH]c2c1` [Example 10, (R)-6-tert-butyl-N-(pyrrolidin-3-yl)-1H-indole-2-carboxamide] stands “a (“a” denotes active compounds (>100%))”.
Under `O=C(N[C@@H]1CCNC1)c1cc2ccc(-c3ccccc3)cc2[nH]1` [Example 13, (R)-6-phenyl-N-(pyrrolidin-3-yl)-1H-indole-2-carboxamide] stands “a (“a” denotes active compounds (>100%))”.
On to `CN1CC[C@@H](NC(=O)c2cc3cc(Cl)ccc3[nH]2)C1` [Example 31], for which the “Activity” value was “a (“a” denotes active compounds (>100%))”.
Consider `CN1CC[C@H](NC(=O)c2cc3c(Cl)cc(Cl)cc3[nH]2)C1` [Example 40, (S)-4,6-dichloro-N-(1-methylpyrrolidin-3-yl)-1H-indole-2-carboxamide], for which the “Activity” value is given as “a (“a” denotes active compounds (>100%))”.
Under `Cc1ccc(C)c2c(C)c(C(=O)N[C@@H]3CCCNC3)[nH]c12` [Example 108, (R)-3,4,7-trimethyl-N-(piperidin-3-yl)-1H-indole-2-carboxamide] stands “a (“a” denotes active compounds (>100%))”.
Regarding `Cc1ccc(C)c2c(C)c(C(=O)N[C@@H]3CCCN(C)C3)[nH]c12.Cc1ccc(S(=O)(=O)O)cc1` [Example 109, (R)-3,4,7-trimethyl-N-(1-methylpiperidin-3-yl)-1H-indole-2-carboxamide tosylate], the “Activity” value was “a (“a” denotes active compounds (>100%))”.
As to `O=C(N[C@@H]1CCCNC1)c1cc2c(Cl)cc(Cl)cc2[nH]1` [Example 114, (R)-4,6-dichloro-N-(piperidin-3-yl)-1H-indole-2-carboxamide], the “Activity” value is listed as “a (“a” denotes active compounds (>100%))”.
